We go through three compounds from patent US20090318381A1, “Halogenated alkyl di-and trisaccharides, pharmaceutical formulations, diagnostic kits and methods of treatment” (priority 2006, published 2009).

One experiment concerns Listeria Monocytogenes. Particulars: in conjunction with certain organic acids; J. Applied Bacteriol. 1996; cited from earlier work.
Experiment [1] deals with Adenovirus Infection of Bladder Epithelium. Particulars: pretreatment agent; Ramesh et al., Molecular Therapy 2004; cited from earlier work.
Another experiment deals with Staphylococcus aureus. Nature of the experiment: Antimicrobial testing, time-kill log reduction against S. aureus. It counts as cell-based. The conditions noted are these: for Concentration (CFU/mL): 5 ml of 1% Compound 3 solution + 20 ml PBS pH 7.2; for Log Reduction: log inoculum verification minus sample log recovery. Here is the method:
(§1) The preferred embodiment was tested for antimicrobial activity using the following procedure.
(§2) A 1% solution of Compound 3 was prepared in DPBS (Dulbecco's phosphate buffered saline). A 25 ml mixture of the 1% Compound 3 and PBS (phosphate buffered saline, pH 7.2 was prepared by mixing 5 ml of the 1% Compound 3 solution and 20 ml of the PBS.
(§3) A 10 ml aliquot of the above mixture was placed into each of two sterile test tubes. One test tube was inoculated with 0.1 ml of S. aureus and the other with 0.1 ml of P. aeruginosa, such that there was a final concentration of 10^6 colony-forming units (CFU)/0.1 mls.
(§4) A various time points, 1.0 ml of each inoculated test sample were removed, diluted 10× with 0.45% saline and plated on trypticase soy agar (TSA) plates.
(§5) Samples of PBS was treated in the same manner. At time points 5 mins and 60 mins, two 1 ml samples were taken and diluted 1 × and one spiked with a 0.1 ml aliquot of the S. aureus and the other spiked with 0.1 ml of the P aeruginosa.
(§6) The plates were incubated at 30-35° C. for not less than 24 hours. Concentration of CFU in the samples taken at each time point were enumerated by standard methods. The log reduction was calculated for each time period and organism. The log reduction was calculated using the formula: Log reduction=Log inoculums verification−sample log recovery.

For a further experiment, the system named is Pseudomonas aeruginosa. Nature of the experiment: Antimicrobial testing, time-kill log reduction against P. aeruginosa. The experiment is classed as cell-based. Particulars: for Concentration (CFU/mL): 5 ml of 1% Compound 3 solution + 20 ml PBS pH 7.2; for Log Reduction: log inoculum verification minus sample log recovery. How it is done: as §1, §2, §3, §4, §5, §6

[2] abbreviates: antimicrobial if greater than 5 log reduction.

Consider sucrose monolaurate, for which the “anti-microbial against Listeria Monocytogenes” value in the experiment on Listeria Monocytogenes is “effective anti-microbial”. The “increasing the effectiveness of gene and oncolytic virus therapy” value in experiment [1] is given as “effective”.

Turning to `CCCCCCCCCCCC(=O)OCC1O[C@H](O[C@@]2(CCl)O[C@H](CCl)C(O)C2O)C(O)C(O)[C@H]1Cl` (stereo in doubt) [Compound 3, 1′,6′-Dichloro-1′,6′-dideoxy-β-D-fructofuranosyl-4-chloro-4-deoxy-6-O-monododecanoate-α-D-galactopyranoside], the “Concentration (CFU/mL)” value in the experiment on Staphylococcus aureus (5 minutes) was 6.9 × 10^5 CFU/mL; in the experiment on Staphylococcus aureus (15 minutes), 4.3 × 10^4 CFU/mL; in the experiment on Staphylococcus aureus (30 minutes), 1.41 × 10^4 CFU/mL; in the experiment on Staphylococcus aureus (60 minutes) it was 2.9 × 10^3 CFU/mL; in the experiment on Pseudomonas aeruginosa (5 minutes), 1.53 × 10^6 CFU/mL; in the experiment with Pseudomonas aeruginosa (15 minutes), 1.1 × 10^6 CFU/mL. Besides, the figures for the “Concentration (CFU/mL)” value with Pseudomonas aeruginosa (30 minutes) and with Pseudomonas aeruginosa (60 minutes) were 1.21 × 10^6 CFU/mL and “TNTC*”, respectively. Also, the “Log Reduction” value in the experiment on Staphylococcus aureus (5 minutes) amounted to 4; in the experiment with Staphylococcus aureus (15 minutes), 5.2; in the experiment on Staphylococcus aureus (30 minutes), 5.7; in the experiment with Staphylococcus aureus (60 minutes), 6.3; with Pseudomonas aeruginosa (5 minutes) it was 3.5; with Pseudomonas aeruginosa (15 minutes), 3.7. In addition, in the experiment on Pseudomonas aeruginosa (30 minutes), the “Log Reduction” value was found to be 3.6. Further, the antimicrobial effect entry is given as “has antimicrobial effect” in the experiment with Staphylococcus aureus (setting [2]) and “not” with Pseudomonas aeruginosa (setting [2]).

Regarding `CCCCCCCCCCCCO[C@@H]1O[C@H](CO)[C@@H](O[C@H]2O[C@H](CO)[C@@H](O)[C@H](O)[C@H]2O)[C@H](O)[C@H]1O` [dodecyl maltoside], the “increasing the effectiveness of gene and oncolytic virus therapy” value in experiment [1] is on record as “effective”.
